Test results: PubChem BioAssay (NCI)
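Assay format: 96-well plates, 48-hour exposure. GI50: concentration for 50% inhibition of growth. TGI: concentration producing complete growth inhibition.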

How the values were obtained:
Experiment in all cases: growth of human tumour cells (NCI), 48 h; in the data active = GI50 below about 0.43 µM; inactive = the rest
SK-OV-3 ovarian = system: SK-OV-3 ovarian
A498 renal = system: A498 renal
RXF 393 renal = system: RXF 393 renal
NCI/ADR-RES ovarian = system: NCI/ADR-RES ovarian
SNB-75 CNS = system: SNB-75 CNS
A549 NSCLC = system: A549 NSCLC
KM12 colon = system: KM12 colon
CCRF-CEM leukemia = system: CCRF-CEM leukemia
OVCAR-5 ovarian = system: OVCAR-5 ovarian
NCI-H460 lung = system: NCI-H460 lung
UO-31 renal = system: UO-31 renal
HCT-116 colon = system: HCT-116 colon
EKVX NSCLC = system: EKVX NSCLC
SN12C renal = system: SN12C renal
MALME-3M melanoma = system: MALME-3M melanoma
LOX IMVI melanoma = system: LOX IMVI melanoma
SW-620 colon = system: SW-620 colon
ACHN renal = system: ACHN renal
OVCAR-8 ovarian = system: OVCAR-8 ovarian
CAKI-1 renal = system: CAKI-1 renal
NCI-H226 lung = system: NCI-H226 lung
U251 CNS = system: U251 CNS
MDA-MB-435 = system: MDA-MB-435
UACC-62 melanoma = system: UACC-62 melanoma
NCI-H23 lung = system: NCI-H23 lung
HCT-15 colon = system: HCT-15 colon
HCC-2998 colon = system: HCC-2998 colon
SNB-19 CNS = system: SNB-19 CNS
SF-539 CNS = system: SF-539 CNS
IGROV1 ovarian = system: IGROV1 ovarian
SF-268 CNS = system: SF-268 CNS
SK-MEL-5 melanoma = system: SK-MEL-5 melanoma
BT-549 breast = system: BT-549 breast
NCI-H522 lung = system: NCI-H522 lung
SK-MEL-2 melanoma = system: SK-MEL-2 melanoma
786-0 renal = system: 786-0 renal
MOLT-4 leukemia = system: MOLT-4 leukemia
K-562 leukemia = system: K-562 leukemia
HS 578T breast = system: HS 578T breast
HOP-62 NSCLC = system: HOP-62 NSCLC
HL-60(TB) leukemia = system: HL-60(TB) leukemia
HT29 colon = system: HT29 colon
TK-10 renal = system: TK-10 renal
HOP-92 NSCLC = system: HOP-92 NSCLC
MDA-MB-231 breast = system: MDA-MB-231 breast
SF-295 CNS = system: SF-295 CNS
COLO 205 colon = system: COLO 205 colon
OVCAR-3 ovarian = system: OVCAR-3 ovarian
UACC-257 melanoma = system: UACC-257 melanoma
T-47D breast = system: T-47D breast
M14 melanoma = system: M14 melanoma
SR leukemia = system: SR leukemia
DU-145 prostate = system: DU-145 prostate
RPMI-8226 leukemia = system: RPMI-8226 leukemia
OVCAR-4 ovarian = system: OVCAR-4 ovarian
SK-MEL-28 melanoma = system: SK-MEL-28 melanoma
MCF7 breast = system: MCF7 breast
PC-3 prostate = system: PC-3 prostate

CCC(CC)n1c(=O)c(SC2=NC3C(NN2)N(CC)C(=O)N3CC)c(C(=O)O)c2ccccc21 (configuration not stated)
> 94100 nM: TGI (SK-OV-3 ovarian)
> 49000 nM: TGI (SR leukemia)
> 57000 nM: TGI (HOP-62 NSCLC)
> 87200 nM: TGI (A498 renal)
7640 nM: TGI (SK-MEL-5 melanoma)
1460 nM: TGI (NCI-H522 lung)
> 33700 nM: TGI (HCT-116 colon)
> 54100 nM: TGI (NCI-H460 lung)
6720 nM: TGI (BT-549 breast)
36500 nM: TGI (UACC-62 melanoma)
3490 nM: TGI (OVCAR-3 ovarian)
2380 nM: TGI (SF-539 CNS)
32300 nM: TGI (CAKI-1 renal)
inactive: GI50 (SK-OV-3 ovarian) 1450 nM | GI50 (A498 renal) 33700 nM | GI50 (RXF 393 renal) 805 nM | GI50 (NCI/ADR-RES ovarian) 974 nM | GI50 (SNB-75 CNS) 1210 nM | GI50 (A549 NSCLC) 1510 nM | GI50 (KM12 colon) 1200 nM | GI50 (CCRF-CEM leukemia) 1130 nM | GI50 (OVCAR-5 ovarian) 1280 nM | GI50 (NCI-H460 lung) 1110 nM | GI50 (UO-31 renal) 1540 nM | GI50 (HCT-116 colon) 1010 nM | GI50 (EKVX NSCLC) 6670 nM | GI50 (SN12C renal) 1310 nM | GI50 (MALME-3M melanoma) 2660 nM | GI50 (LOX IMVI melanoma) 1260 nM | GI50 (SW-620 colon) 1480 nM | GI50 (ACHN renal) 1580 nM | GI50 (OVCAR-8 ovarian) 1050 nM | GI50 (CAKI-1 renal) 1220 nM | GI50 (NCI-H226 lung) 1110 nM | GI50 (U251 CNS) 1130 nM | GI50 (MDA-MB-435) 2030 nM | GI50 (UACC-62 melanoma) 1200 nM | GI50 (NCI-H23 lung) 3590 nM | GI50 (HCT-15 colon) 969 nM | GI50 (HCC-2998 colon) 1080 nM | GI50 (SNB-19 CNS) 1660 nM | GI50 (SF-539 CNS) 811 nM | GI50 (IGROV1 ovarian) 1500 nM | GI50 (SF-268 CNS) 2030 nM | GI50 (SK-MEL-5 melanoma) 1380 nM | GI50 (BT-549 breast) 1470 nM | GI50 (NCI-H522 lung) 578 nM | GI50 (SK-MEL-2 melanoma) 1080 nM | GI50 (786-0 renal) 1530 nM | GI50 (MOLT-4 leukemia) 1150 nM | GI50 (K-562 leukemia) 1000 nM | GI50 (HS 578T breast) 1220 nM | GI50 (HOP-62 NSCLC) 1460 nM | GI50 (HL-60(TB) leukemia) 767 nM | GI50 (HT29 colon) 909 nM | GI50 (TK-10 renal) 14500 nM | GI50 (HOP-92 NSCLC) 18300 nM | GI50 (MDA-MB-231 breast) 1270 nM | GI50 (SF-295 CNS) 1020 nM | GI50 (COLO 205 colon) 771 nM | GI50 (OVCAR-3 ovarian) 966 nM | GI50 (UACC-257 melanoma) 5530 nM | GI50 (T-47D breast) 6140 nM | GI50 (M14 melanoma) 1050 nM | GI50 (SR leukemia) 805 nM | GI50 (DU-145 prostate) 1300 nM | GI50 (RPMI-8226 leukemia) 3760 nM | GI50 (OVCAR-4 ovarian) 6560 nM | GI50 (SK-MEL-28 melanoma) 2200 nM | GI50 (MCF7 breast) 1030 nM | GI50 (PC-3 prostate) 1250 nM
2300 nM: TGI (HL-60(TB) leukemia)
> 46800 nM: TGI (SF-295 CNS)
> 55200 nM: TGI (M14 melanoma)
3280 nM: TGI (RXF 393 renal)
> 89800 nM: TGI (TK-10 renal)
5780 nM: TGI (NCI-H226 lung)
> 71900 nM: TGI (MDA-MB-231 breast)
1830 nM: TGI (COLO 205 colon)
> 48200 nM: TGI (MOLT-4 leukemia)
99200 nM: TGI (HS 578T breast)
> 55000 nM: TGI (SK-MEL-2 melanoma)
5010 nM: TGI (MDA-MB-435)
> 100000 nM: TGI (A549 NSCLC) | TGI (KM12 colon) | TGI (CCRF-CEM leukemia) | TGI (OVCAR-5 ovarian) | TGI (UO-31 renal) | TGI (EKVX NSCLC) | TGI (SN12C renal) | TGI (MALME-3M melanoma) | TGI (LOX IMVI melanoma) | TGI (SW-620 colon) | TGI (ACHN renal) | TGI (U251 CNS) | TGI (NCI-H23 lung) | TGI (HCT-15 colon) | TGI (SNB-19 CNS) | TGI (IGROV1 ovarian) | TGI (SF-268 CNS) | TGI (786-0 renal) | TGI (K-562 leukemia) | TGI (HOP-92 NSCLC) | TGI (UACC-257 melanoma) | TGI (T-47D breast) | TGI (DU-145 prostate) | TGI (RPMI-8226 leukemia) | TGI (OVCAR-4 ovarian) | TGI (SK-MEL-28 melanoma) | TGI (MCF7 breast) | TGI (PC-3 prostate)
> 33400 nM: TGI (SNB-75 CNS)
